pEC50: −log10 of the molar value.

This experiment in a line: Agonist activity at human sensory neuron-specific G-protein coupled receptor expressed in HEK293 cells assessed as intracellular calcium mobilization by FLIPR. The experiment is classed as functional, cell-based.
What is called pEC50 is the negative decadic logarithm of the EC50, by convention in mol/L. With `CC(C)[C@@H](NC(=O)[C@@H]1CCCN1C(=O)[C@H](Cc1ccc(Br)cc1)NC(=O)[C@@H](C)NC=O)C(=O)N[C@H](C(=O)N[C@H](Cc1c[nH]c2ccccc12)C(=O)N[C@@H](CCCNC(=N)N)C(=O)N[C@H](CS(=O)(=O)O)C(=O)N[C@@H]1C(=O)N(C)[C@@H](CCC(N)=O)C(=O)N[C@H](C(C)C)C(=O)N2CCC[C@H]2C(=O)N[C@H](CC(=O)O)C(=O)O[C@@H]1C)C(C)(C)C` [POLYDISCAMIDE D], the pEC50 is 5.55.

Regarding `CCC(C)(C)[C@H](NC(=O)[C@H](NC(=O)[C@@H]1CCCN1C(=O)[C@H](Cc1ccc(Br)cc1)NC(=O)[C@@H](C)NC=O)C(C)C)C(=O)N[C@H](Cc1c[nH]c2ccccc12)C(=O)N[C@@H](CCCNC(=N)N)C(=O)N[C@H](CS(=O)(=O)O)C(=O)N[C@@H]1C(=O)N(C)[C@@H](CCC(N)=O)C(=O)N[C@H](C(C)C)C(=O)N2CCC[C@H]2C(=O)N[C@H](CC(=O)O)C(=O)O[C@@H]1C` [POLYDISCAMIDE C], the pEC50 was 5.45.

For `CCC(C)(C)[C@H](NC(=O)[C@H](NC(=O)[C@@H]1CCCN1C(=O)[C@H](Cc1ccc(Br)cc1)NC(=O)[C@@H](C)NC=O)C(C)(C)C)C(=O)N[C@H](Cc1c[nH]c2ccccc12)C(=O)N[C@@H](CCCNC(=N)N)C(=O)N[C@H](CS(=O)(=O)O)C(=O)N[C@@H]1C(=O)N(C)[C@@H](CCC(N)=O)C(=O)N[C@H](C(C)C)C(=O)N2CCC[C@H]2C(=O)N[C@H](CC(=O)O)C(=O)O[C@@H]1C` [POLYDISCAMIDE B], the pEC50 was 5.90.

The record behind these values is ChEMBL document CHEMBL1143076, “Polydiscamides B-D from a marine sponge Ircinia sp. as potent human sensory neuron-specific G protein coupled receptor agonists” (J Nat Prod, 2008).
